# Data published in the supplement of paper PMC10307832.
# Key:
# Experiment in all cases: relative viability (nuclei count vs DMSO), 5 days (fraction); higher = more cells survive
# IA-LM = test system: IA-LM
# Summary of the method: (§1)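 Lung cancer cell lines, seeded in 1536-well plates, were treated the following day by pin tool with a single drug or with five library-drug doses (not always all listed) in √10 steps on top of a fixed anchor-drug dose. Cells were fixed and nuclei stained in one step after 5 days, and nuclei were counted. Relative viability is the nuclei count for treated wells divided by that for vehicle wells, reported as medians of duplicate plates.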
# NCI-H1703 = test system: NCI-H1703
# Summary of the method: as §1
# NCI-H1563 = test system: NCI-H1563
# Summary of the method: as §1
# A549 = test system: A549
# Summary of the method: as §1
# Calu-6 = test system: Calu-6
# Summary of the method: as §1
# NCI-H1299 = test system: NCI-H1299
# Summary of the method: as §1
# EBC-1 = test system: EBC-1
# Summary of the method: as §1
compound,measurement,setting,value
O=C(O)CCCCC(CCSCc1ccccc1)SCc1ccccc1 (stereo not given) [CPI-613] + C[C@@H](Oc1cc(-c2cnn(C3CCNCC3)c2)cnc1N)c1c(Cl)ccc(F)c1Cl [Crizotinib] (partner 1 µM),relative viability,IA-LM; first compound 5 µM,0.584
same,relative viability,IA-LM; first compound 15.81 µM,0.549
same,relative viability,IA-LM; first compound 50 µM,0.621
same,relative viability,IA-LM; first compound 158.11 µM,0.454
same,relative viability,IA-LM; first compound 500 µM,0.22
same,relative viability,NCI-H1703; first compound 5 µM,0.582
same,relative viability,NCI-H1703; first compound 15.81 µM,0.487
same,relative viability,NCI-H1703; first compound 50 µM,0.531
same,relative viability,NCI-H1703; first compound 158.11 µM,0.31
same,relative viability,NCI-H1703; first compound 500 µM,0.284
same,relative viability,NCI-H1563; first compound 5 µM,0.834
same,relative viability,NCI-H1563; first compound 15.81 µM,0.877
same,relative viability,NCI-H1563; first compound 50 µM,0.857
same,relative viability,NCI-H1563; first compound 158.11 µM,0.477
same,relative viability,NCI-H1563; first compound 500 µM,0.211
same,relative viability,A549; first compound 5 µM,0.738
same,relative viability,A549; first compound 15.81 µM,0.595
same,relative viability,A549; first compound 50 µM,0.526
same,relative viability,A549; first compound 158.11 µM,0.191
same,relative viability,A549; first compound 500 µM,0.145
same,relative viability,Calu-6; first compound 5 µM,0.802
same,relative viability,Calu-6; first compound 15.81 µM,0.622
same,relative viability,Calu-6; first compound 50 µM,0.741
same,relative viability,Calu-6; first compound 158.11 µM,0.556
same,relative viability,Calu-6; first compound 500 µM,0.346
same,relative viability,NCI-H1299; first compound 5 µM,0.926
same,relative viability,NCI-H1299; first compound 15.81 µM,0.942
same,relative viability,NCI-H1299; first compound 50 µM,0.944
same,relative viability,NCI-H1299; first compound 158.11 µM,0.889
same,relative viability,NCI-H1299; first compound 500 µM,0.861
same,relative viability,EBC-1; first compound 5 µM,0.179
same,relative viability,EBC-1; first compound 15.81 µM,0.198
same,relative viability,EBC-1; first compound 50 µM,0.197
same,relative viability,EBC-1; first compound 158.11 µM,0.133
same,relative viability,EBC-1; first compound 500 µM,0.167
O=c1[nH]c2ccccc2n1C1CCN(CCCC(c2ccc(F)cc2)c2ccc(F)cc2)CC1 [Pimozide] + CC1(C)CCC(c2ccc(Cl)cc2)=C(CN2CCN(c3ccc(C(=O)NS(=O)(=O)c4ccc(N[C@H](CCN5CCOCC5)CSc5ccccc5)c(S(=O)(=O)C(F)(F)F)c4)cc3)CC2)C1 [Navitoclax] (partner 0.5 µM),relative viability,IA-LM; first compound 0.08 µM,0.686
same,relative viability,IA-LM; first compound 0.253 µM,0.723
same,relative viability,IA-LM; first compound 0.8 µM,0.923
same,relative viability,IA-LM; first compound 2.53 µM,0.746
same,relative viability,IA-LM; first compound 8 µM,0.728
same,relative viability,NCI-H1703; first compound 0.08 µM,1.05
same,relative viability,NCI-H1703; first compound 0.253 µM,0.99
same,relative viability,NCI-H1703; first compound 0.8 µM,0.982
same,relative viability,NCI-H1703; first compound 2.53 µM,0.801
same,relative viability,NCI-H1703; first compound 8 µM,0.782
same,relative viability,A549; first compound 0.08 µM,1.28
same,relative viability,A549; first compound 0.253 µM,1.31
same,relative viability,A549; first compound 0.8 µM,1.15
same,relative viability,A549; first compound 2.53 µM,1.14
same,relative viability,A549; first compound 8 µM,0.987
same,relative viability,Calu-6; first compound 0.08 µM,0.785
same,relative viability,Calu-6; first compound 0.253 µM,0.805
same,relative viability,Calu-6; first compound 0.8 µM,0.844
same,relative viability,Calu-6; first compound 2.53 µM,0.704
same,relative viability,Calu-6; first compound 8 µM,0.774
same,relative viability,NCI-H1299; first compound 0.08 µM,1.04
same,relative viability,NCI-H1299; first compound 0.253 µM,0.969
same,relative viability,NCI-H1299; first compound 0.8 µM,0.99
same,relative viability,NCI-H1299; first compound 2.53 µM,1.03
same,relative viability,NCI-H1299; first compound 8 µM,1.03
same,relative viability,EBC-1; first compound 0.08 µM,0.356
same,relative viability,EBC-1; first compound 0.253 µM,0.493
same,relative viability,EBC-1; first compound 0.8 µM,0.367
same,relative viability,EBC-1; first compound 2.53 µM,0.309
same,relative viability,EBC-1; first compound 8 µM,0.211
O=c1[nH]c2ccccc2n1C1CCN(CCCC(c2ccc(F)cc2)c2ccc(F)cc2)CC1 [Pimozide] + CC(C)C[C@H](NC(=O)[C@H](Cc1ccccc1)NC(=O)c1cnccn1)B(O)O [Bortezomib] (partner 0.002 µM),relative viability,IA-LM; first compound 0.08 µM,0.789
same,relative viability,IA-LM; first compound 0.253 µM,0.792
same,relative viability,IA-LM; first compound 0.8 µM,0.856
same,relative viability,IA-LM; first compound 2.53 µM,0.901
same,relative viability,IA-LM; first compound 8 µM,0.692
same,relative viability,NCI-H1703; first compound 0.08 µM,0.206
same,relative viability,NCI-H1703; first compound 0.253 µM,0.337
same,relative viability,NCI-H1703; first compound 0.8 µM,0.379
same,relative viability,NCI-H1703; first compound 2.53 µM,0.227
same,relative viability,NCI-H1703; first compound 8 µM,0.306
same,relative viability,NCI-H1563; first compound 0.08 µM,0.848
same,relative viability,NCI-H1563; first compound 0.253 µM,0.936
same,relative viability,NCI-H1563; first compound 0.8 µM,0.855
same,relative viability,NCI-H1563; first compound 2.53 µM,0.67
same,relative viability,NCI-H1563; first compound 8 µM,0.583
same,relative viability,Calu-6; first compound 0.08 µM,1
same,relative viability,Calu-6; first compound 0.253 µM,1.15
same,relative viability,Calu-6; first compound 0.8 µM,0.969
same,relative viability,Calu-6; first compound 2.53 µM,1.04
same,relative viability,Calu-6; first compound 8 µM,0.856
same,relative viability,NCI-H1299; first compound 0.08 µM,0.984
same,relative viability,NCI-H1299; first compound 0.253 µM,1.05
same,relative viability,NCI-H1299; first compound 0.8 µM,0.975
same,relative viability,NCI-H1299; first compound 2.53 µM,1.01
same,relative viability,NCI-H1299; first compound 8 µM,0.976
same,relative viability,EBC-1; first compound 0.08 µM,0.517
same,relative viability,EBC-1; first compound 0.253 µM,0.557
same,relative viability,EBC-1; first compound 0.8 µM,0.532
same,relative viability,EBC-1; first compound 2.53 µM,0.439
same,relative viability,EBC-1; first compound 8 µM,0.381
